For series [1] the following is noted: rcm bond, Hoveyda-Grubbs 1st generation catalyst, 1,2-dichloroethane, 83.0 °C.
Series [2] is described as follows: Oral pharmacokinetics in dog with and without ritonavir boosting. It counts as in vivo, male Beagle dogs. The following applies: single oral 10 mg/kg, boosted with ritonavir (Norvir 100 mg capsule) vs non-boosted. How it is done: Oral pharmacokinetics of Compound nr. 9 in male Beagle dogs after a single dose at 10 mg/kg, using a formulation in 50% PEG400/water and the influence of “boosting” with 10 mg/kg ritonavir were investigated.
Six male Beagle dogs (body weight 8-10 kg) were randomly divided into 2 groups of 3 animals (boosted and non-boosted). No untreated or vehicle-treated control animals were included. […] Drinking water remained available throughout the experiment.
Dogs from the non-boosted group received a single oral 10 mg/kg dose of Compound nr. 9, formulated as a 5 mg/ml 50% PEG400/water. Dogs from the boosted group received a single soft capsule of Norvir® (ritonavir, 100 mg/capsule), about 30 minutes before single oral dosing with 10 mg/kg of Compound nr. 9. The drug formulations were administered by oral gavage, using a gastric tube.
A 3 ml blood sample was collected at 0.5 h 1 h, 2 h, 4 h, 6 h, 8 h and 24 hours after dosing of Compound nr. 9. Plasma concentrations were determined using HPLC-MS. Results are shown in the table 5 below, expressed as fold change in pharmacokinetic parameter of the boosted group as compared to the non-boosted group.

The target in series [3] is T1, full-length hepatitis C NS3 protease enzyme with NS4A cofactor (HCV NS3/4A protease) (Hepatitis C virus genotype 1a, UniProt P27958).
T1 construct: full-length hepatitis C NS3 protease enzyme
T1 sequence (P27958 1027-1657, other chains not shown): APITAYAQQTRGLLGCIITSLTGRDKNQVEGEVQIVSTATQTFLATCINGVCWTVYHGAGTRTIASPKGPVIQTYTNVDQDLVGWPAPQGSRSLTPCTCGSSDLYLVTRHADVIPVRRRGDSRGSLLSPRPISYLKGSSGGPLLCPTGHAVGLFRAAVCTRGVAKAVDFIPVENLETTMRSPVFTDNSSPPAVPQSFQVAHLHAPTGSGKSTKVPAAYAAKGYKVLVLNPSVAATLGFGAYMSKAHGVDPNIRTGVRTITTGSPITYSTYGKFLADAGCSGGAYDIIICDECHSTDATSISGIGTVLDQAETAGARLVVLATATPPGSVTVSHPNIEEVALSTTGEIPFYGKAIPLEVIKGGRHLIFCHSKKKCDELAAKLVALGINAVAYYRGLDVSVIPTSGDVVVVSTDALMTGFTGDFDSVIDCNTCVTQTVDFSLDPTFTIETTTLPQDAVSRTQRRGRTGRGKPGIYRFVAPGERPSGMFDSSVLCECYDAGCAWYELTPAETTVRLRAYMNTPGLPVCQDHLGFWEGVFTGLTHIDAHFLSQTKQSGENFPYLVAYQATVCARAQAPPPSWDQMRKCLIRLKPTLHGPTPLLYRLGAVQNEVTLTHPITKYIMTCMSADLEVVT
Description: Enzymatic inhibition assay of HCV NS3/4A protease. Type of series: biochemical. How it is done: [Landro, Biochemistry, 1997, 36(31): 9340-9348]. […] The solutions were stored at −20° C. between measurements.
[Liu, 1999 Analytical Biochemistry 267 331-335].

Series [4] in a line: In vitro metabolic blocking by ritonavir in human liver microsomes. It counts as in vitro ADME. The following applies: human liver microsomes 1 mg/ml. How it is done: Different HCV NS3/4a protease inhibitors were tested in a metabolic blocking experiment using 3 μM test compound together with 10 μM ritonavir acting as booster. Test compounds and ritonavir were added to human liver microsomes (protein concentration 1 mg/ml) suspended in potassium phosphate buffer (pH=7.4), to get final reaction mixture concentrations of 3 μM test compound and 10 μM ritonavir. In the non-boosted parallel reactions, ritonavir was not added. Boiled human liver microsomes were used for blank experiments. After addition (in a 1:3 ratio) of a cofactor mixture consisting of β-nicotinamide adenine dinucleotide phosphate (β-NADP, 0.5 mg/ml, 653.2 μM), D-Glucose-6-phosphate (2 mg/ml, 7.1 mM), Glucose-6-phosphate dehydrogenase (1.5 U/ml) in 2% NaHCO3, the reaction mixture was incubated at 37° C. for 30 or 120 minutes after which the reaction was stopped by increasing the temperature to 95° C. Test compound concentrations were determined using HPLC-MS.
Values are percentages of test compound detected after the indicated incubation times as compared to the initial test compound concentration. Each value is the mean of the results of two independent experiments.
A general note: Microsomes from liver hold many membrane-bound enzymes, among them those of drug oxidation.

Series [5] can be described thus: in vitro. The following applies: human, Caco-2.
For series [6], the system named is HCV replicons (NS3-NS5B regions of HCV type 1b) in Huh-7 luc/neo cells. Description: HCV replicon assay (Huh-Luc, luciferase readout). Type of series: cell-based. The following applies: Hepatitis C virus, Huh-7, 72 h, three days incubation, luciferase activity. How it is done:
The in vitro antiviral activity against HCV of the compounds of formula (I) was tested in a cellular HCV replicon system based on Lohmann et al. (1999) Science 285:110-113, with the further modifications described by Krieger et al. (2001), Journal of Virology 75: 4614-4624, which is further exemplified in the examples section. This model, while not a complete infection model for HCV, is widely accepted as the most robust and efficient model of autonomous HCV RNA replication currently available. […] It will be appreciated that it is important to distinguish between compounds that specifically interfere with HCV functions from those that exert cytotoxic or cytostatic effects in the HCV replicon model, and as a consequence cause a decrease in HCV RNA or linked reporter enzyme concentration. Assays are known in the field for the evaluation of cellular cytotoxicity based for example on the activity of mitochondrial enzymes using fluorogenic redox dyes such as resazurin. Furthermore, cellular counter screens exist for the evaluation of non-selective inhibition of linked reporter gene activity, such as firefly luciferase. Appropriate cell types can be equipped by stable transfection with a luciferase reporter gene whose expression is dependent on a constitutively active gene promoter, and such cells can be used as a counter-screen to eliminate non-selective inhibitors.
The compounds of formula (I) were examined for activity in the inhibition of HCV RNA replication in a cellular assay. […] The cellular assay was based on a bicistronic expression construct, as described by Lohmann et al. (1999) Science vol. 285 pp. 110-113 with modifications described by Krieger et al. (2001) Journal of Virology 75: 4614-4624, in a multi-target screening strategy. In essence, the method was as follows.
The assay utilized the stably transfected cell line Huh-7 luc/neo (hereafter referred to as Huh-Luc). This cell line harbors an RNA encoding a bicistronic expression construct comprising the wild type NS3-NS5B regions of HCV type 1b translated from an Internal Ribosome Entry Site (IRES) from encephalomyocarditis virus (EMCV), preceded by a reporter portion (FfL-luciferase), and a selectable marker portion (neo^R, neomycine phosphotransferase). […]
The replicon cells were plated in 384 well plates in the presence of the test and control compounds which were added in various concentrations. Following an incubation of three days, HCV replication was measured by assaying luciferase activity (using standard luciferase assay substrates and reagents and a Perkin Elmer ViewLux™ ultraHTS microplate imager). […] The inhibitory activity of the compound on luciferase activity was monitored on the Huh-Luc cells, enabling a dose-response curve for each test compound.

For series [7] the following is noted: reference compounds for permeability assay; cited from earlier work.

Results on eight compounds are retold here after US8008251B2, “Macrocyclic inhibitors of hepatitis C virus” (Tibotec Pharmaceuticals Ltd., priority 2005, dated 2011).

Usually Ki stands for a dissociation constant, usually derived from enzyme kinetics or from competition with a known ligand. What is called Papp is a coefficient for how fast a substance crosses the barrier. A low value points to poor permeation. A word on the EC50: it is the concentration that produces a half-maximal response. Higher therefore signals a need for much substance.

Where two headings read alike, the source gives them in different places.

`CCOC(=O)C12CC1C=CCCCCCNC(=O)N1CC(Oc3cc(-c4nc(C(C)C)cs4)nc4cc(OC)ccc34)CC1C(=O)N2` (stereo not shown) gave a ring closure, yield of all isomers in series [1] (from C=CCCCCCNC(=O)N1CC(Oc2cc(-c3nc(C(C)C)cs3)nc3cc(OC)ccc23)CC1C(=O)NC1(C(=O)OCC)CC1C=C, 2.2 mM, 16.0 h) of 57%.

Compound `CCOC(=O)C12CC1C=CCCCCN(C)C(=O)N1CC(OC(=O)c3ccc([N+](=O)[O-])cc3)CC1C(=O)N2` (stereo not shown) registered a ring closure, yield of all isomers in series [1] (from C=CCCCCN(C)C(=O)N1CC(OC(=O)c2ccc([N+](=O)[O-])cc2)CC1C(=O)NC1(C(=O)OCC)CC1C=C, 1.93 mM) of 74%.

With `CCOC(=O)C12CC1C=CCCCCN(C)C(=O)N1CC(Oc3cc(-c4nc(C(C)C)cs4)nc4cc(OC)ccc34)CC1C(=O)N2` (stereo not shown), the ring closure, yield of all isomers in series [1] (from C=CCCCCN(C)C(=O)N1CC(Oc2cc(-c3nc(C(C)C)cs3)nc3cc(OC)ccc23)CC1C(=O)NC1(C(=O)OCC)CC1C=C, 1.45 mM) was 74%.

Take `COc1ccc2c(O[C@@H]3C[C@H]4C(=O)N[C@]5(C(=O)NS(=O)(=O)C6CC6)C[C@H]5/C=C\CCCCCNC(=O)N4C3)cc(-c3nc(C(C)C)cs3)nc2c1` [Compound 9, N-[18-[2-(4-isopropylthiazol-2-yl)-7-methoxyquinolin-4-yl-oxy]-2,15-dioxo-3,14,16-triazatricyclo[14.3.0.0^4,6]nonadec-7-ene-4-carbonyl]-(cyclopropyl)sulfonamide]: in series [2], the “Fold increase in AUC when boosted with ritonavir” value is given as 55 fold and the “Fold increase in Cmax when boosted with ritonavir” value is 31 fold. Moreover, in series [3], the Ki was found to be 0.12 nM. Further, the “% Detected Compound, 30′, ritonavir” value in series [4] (3 μM test compound + 10 μM ritonavir, 30 min) came out at 88%. In series [4] (3 μM test compound + 10 μM ritonavir, 120 min), the “% Detected Compound, 120′, ritonavir” value stood at 100%. In series [4] (3 μM test compound, 30 min, no ritonavir), the “% Detected Compound, 30′, No Booster” value is reported as 44%. Also, the “% Detected Compound, 120′, No Booster” value in series [4] (3 μM test compound, 120 min, no ritonavir) is 0%. The compound further displayed a Papp at 120 min, 10 μM in series [5] of 11 ×10⁻⁶ cm/s. Moreover, the concentration for a half-maximal effect (EC50) in series [6] was 0.007 µM.

`COc1ccc2c(O[C@@H]3C[C@H]4C(=O)N[C@]5(C(=O)NS(=O)(=O)C6CC6)C[C@H]5/C=C\CCCCNC(=O)N4C3)cc(-c3nc(C(C)C)cs3)nc2c1` [Compound 26, Cyclopropanesulphonic acid {17-[2-(4-isopropylthiazol-2-yl)-7-methoxyquinolin-4-yloxy]-2,14-dioxo-3,13,15-triaza-tricyclo[13.3.0.0^4,6]-octadec-7-ene-4-carbonyl}-amide]: the affinity in series [3] corresponds to a Ki of 0.4 nM. This compound also gave a Papp at 120 min, 10 μM in series [5] of 3.6 ×10⁻⁶ cm/s. This compound also had an EC50 in series [6] of 0.0064 µM.

In series [3], `COc1ccc2c(O[C@@H]3C[C@H]4C(=O)N[C@]5(C(=O)NS(=O)(=O)C6(C)CC6)C[C@H]5/C=C\CCCCNC(=O)N4C3)cc(-c3nc(C(C)C)cs3)nc2c1` [Compound 28, 1-Methyl-cyclopropanesulphonic acid [17-[2-(4-isopropyl-thiazol-2-yl)-7-methoxyquinolin-4-yloxy]-2,14-dioxo-3,13,15-triaza-tricyclo-[13.3.0.0^4,6]octadec-7-ene-4-carbonyl]-amide] yielded a Ki of 0.3 nM. For the same compound, the Papp at 120 min, 10 μM in series [5] is 8.6 ×10⁻⁶ cm/s. In series [6], this compound had an EC50 of 0.0023 µM.

As to `COc1ccc2c(O[C@@H]3C[C@H]4C(=O)N[C@]5(C(=O)NS(=O)(=O)C6(C)CC6)C[C@H]5/C=C\CCCCCNC(=O)N4C3)cc(-c3nc(C(C)C)cs3)nc2c1` [Compound 33, 1-Methyl-cyclopropanesulphonic acid [18-[2-(4-isopropyl-thiazol-2-yl)-7-methoxyquinolin-4-yloxy]-2,15-dioxo-3,14,16-triaza-tricyclo-[14.3.0.0^4,6]nonadec-7-ene-4-carbonyl]-amide], the inhibition constant Ki in series [3] stood at 0.3 nM. Besides, the apparent permeability (Papp) at 120 min, 10 μM in series [5] stood at 31 ×10⁻⁶ cm/s. In series [6], this compound had an EC50 of 0.0036 µM.

Regarding `N[C@@H](Cc1ccccc1)C(=O)O` [L-Phenylalanine], the “% absorption in man” value in series [7] is given as 100%.
